Source: ChEMBL document CHEMBL1933028, “Discovery of cyclic amine-substituted benzoic acids as PPARα agonists” (Bioorg Med Chem Lett, 2012)

Legend:
[1] = Agonist activity at hamster PPARdelta; assay type: functional, Cricetinae
Canis familiaris [2] = assay: Volume of distribution at steady state in dog at 0.3 mg/kg, po; assay type: ADME, organism-based, Canis lupus familiaris; set-up: dose 0.3 mg/kg, route oral; settings: in vivo
Canis familiaris [3] = assay: Toxicity in high-fat diet fed dog assessed as change in body weight at 0.01 mg/kg, po administered QD for 1 week (reference value: 14.8 +/- 0.7 kg); assay type: organism-based, Canis lupus familiaris; set-up: dose 0.01 mg/kg, route oral; settings: in vivo, 168 h
[4] = molecular target: T1, Peroxisome proliferator-activated receptor delta (Canis lupus familiaris, UniProt Q0ZAQ8); assay: Agonist activity at dog PPARdelta; assay type: functional
T1 sequence (Q0ZAQ8 whole entry): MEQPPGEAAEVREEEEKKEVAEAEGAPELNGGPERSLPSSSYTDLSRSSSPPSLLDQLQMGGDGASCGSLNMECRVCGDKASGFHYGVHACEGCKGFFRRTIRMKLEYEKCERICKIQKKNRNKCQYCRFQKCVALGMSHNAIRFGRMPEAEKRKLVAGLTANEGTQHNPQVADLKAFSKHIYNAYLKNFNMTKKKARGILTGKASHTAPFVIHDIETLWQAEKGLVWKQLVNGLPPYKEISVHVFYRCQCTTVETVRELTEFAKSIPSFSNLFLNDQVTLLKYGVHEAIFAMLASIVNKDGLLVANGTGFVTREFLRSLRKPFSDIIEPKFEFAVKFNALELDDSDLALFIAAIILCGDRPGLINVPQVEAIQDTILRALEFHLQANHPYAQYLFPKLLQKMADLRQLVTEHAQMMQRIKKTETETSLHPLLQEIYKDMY

[5] = molecular target: T2, Peroxisome proliferator-activated receptor delta (Homo sapiens, UniProt Q03181); assay: Transactivation of human PPARdelta expressed in CHO-K1 cells; assay type: cell-based
T2 sequence (Q03181 whole entry): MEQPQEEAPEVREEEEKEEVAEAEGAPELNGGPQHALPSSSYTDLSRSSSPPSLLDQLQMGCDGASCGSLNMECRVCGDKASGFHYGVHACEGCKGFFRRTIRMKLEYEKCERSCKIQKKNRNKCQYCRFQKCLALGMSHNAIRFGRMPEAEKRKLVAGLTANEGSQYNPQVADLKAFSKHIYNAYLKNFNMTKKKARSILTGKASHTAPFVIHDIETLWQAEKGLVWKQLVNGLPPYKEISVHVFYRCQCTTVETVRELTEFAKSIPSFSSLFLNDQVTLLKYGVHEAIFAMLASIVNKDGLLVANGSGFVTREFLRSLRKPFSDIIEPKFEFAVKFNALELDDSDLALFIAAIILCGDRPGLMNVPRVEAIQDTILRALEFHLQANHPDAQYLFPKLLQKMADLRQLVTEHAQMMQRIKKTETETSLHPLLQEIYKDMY

[6] = Oral bioavailability in dog at 0.3 mg/kg; assay type: ADME, organism-based, Canis lupus familiaris; settings: in vivo
Canis familiaris [7] = assay: Antidyslipidemic activity in high-fat diet fed dog assessed as decrease in serum triglyceride level at 0.03 mg/kg, po administered QD for 1 week (reference value: 98 +/- 4 mg/dL); assay type: functional, Canis lupus familiaris
[8] = molecular target: T3, Peroxisome proliferator-activated receptor gamma (Rattus norvegicus, UniProt O88275); assay: Agonist activity at rat PPARgamma; assay type: functional
T3 sequence (O88275 whole entry): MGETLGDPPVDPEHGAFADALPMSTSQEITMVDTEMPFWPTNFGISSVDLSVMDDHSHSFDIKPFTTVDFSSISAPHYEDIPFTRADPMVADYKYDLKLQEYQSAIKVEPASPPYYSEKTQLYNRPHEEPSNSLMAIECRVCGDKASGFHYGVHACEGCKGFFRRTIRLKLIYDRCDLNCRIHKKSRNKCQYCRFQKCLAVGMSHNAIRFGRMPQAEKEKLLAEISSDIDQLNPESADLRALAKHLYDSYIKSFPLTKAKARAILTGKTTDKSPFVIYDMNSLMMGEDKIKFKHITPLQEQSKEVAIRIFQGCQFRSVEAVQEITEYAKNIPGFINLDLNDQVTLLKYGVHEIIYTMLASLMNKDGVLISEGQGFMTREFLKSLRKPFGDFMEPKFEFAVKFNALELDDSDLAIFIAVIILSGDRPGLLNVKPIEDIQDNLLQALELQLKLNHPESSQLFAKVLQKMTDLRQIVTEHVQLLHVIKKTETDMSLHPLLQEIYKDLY

## Cc1nc(-c2ccc(Cl)cc2)sc1C(=O)N[C@H]1CCCN(c2cccc(C(=O)O)c2)C1
[1]
  EC50: > 7.1 µM
Canis familiaris [2]
  Vdss: 1.66 L/kg
Canis familiaris [3]
  Activity: 14.8 kg
[4]
  EC50: 2700 nM
[5]
  EC50: 3 µM
[6]
  bioavailability: 73.1%
Canis familiaris [7]
  Activity: 44 mg/dL
[8]
  EC50: 13 µM
